In patent US12552837B2, “Bicyclic peptide ligands with detectable moieties and uses thereof” (BicycleRD Limited, priority 2017, dated 2026) one finds Kd data, which are given here for one molecule.

The term Kd denotes the equilibrium constant for the complex coming apart. High values mean lower affinity, low ones higher affinity.

*1 amine or outer side, *2 acyl side, *3 side chain or, on linkers, in order; H or OH if unused. Where a SMILES comes first, the peptide text is derived from it. Bridges are numbered along the chain shown (N, C = ends). [ ]: non-standard residue; d: D form. The star is where a group is joined. DOTA = O=C(O)CN1CCN(CC(=O)O)CCN(CC(=O)*)CCN(CC(=O)O)CC1; 1Nal = N[C@@H](Cc1cccc2ccccc12)C(=O)O; TBMB = c1c(C[*:1])cc(C[*:3])cc1C[*:2]; Tle = CC(C)(C)[C@H](N)C(=O)O

The test deals with MT1-MMP hemopexin domain (Homo sapiens, UniProt P50281). Kind of test: Fluorescence polarization direct binding / competition assay to MT1-MMP hemopexin domain. Here is the method:
Direct Binding Fluorescence Polarization or Anisotropy Assays are performed by titrating a constant concentration of fluorescent tracer (here, the fluoresceinated bicyclic peptide to be studied) with its binding partner (here, the MT1-MMP hemopexin domain). As the concentration of binding partner increases during the titration, the polarization signal changes in proportion to the fraction of bound and unbound material. This allows determination of […] (Kd) quantitatively. Assay data can be fit using standard ligand binding equations.
Typically, concentrations of the tracer are ideally well below the Kd of the tracer: titrant pair, and concentrations chosen are usually at ˜1 nM or less. The titrant (binding partner) concentration is varied from 0.1 nM up to typically 5 μM. The range is chosen such that the maximum change in fluorescent polarization can be observed. Buffers employed are phosphate buffered saline in the presence of 0.01% Tween. Experiments were run in black 384 well low-bind/low volume plates (Corning 3820), and the fluorescent polarization signal was measured using a BMG Pherastar FS plate reader. Fluorescent tracers referred to in the text are bicyclic peptides that have been fluoresceinated using 5,6-carboxyfluorescein. Fluoresceination may be performed on the N-terminal amino group of the peptide, which is separated from the bicycle core sequence by a sarcosine spacer (usually Sar10 (SEQ ID NO: 73)). This can be done during Fmoc solid phase synthesis or post-synthetically (after cyclization with the molecular scaffold reagent and purification) if the N-terminal amino group is unique to the peptide. Fluoresceination can also be performed on the C-terminus, usually on a Lysine introduced as the first C-terminal residue, which is then separated from the bicycle core sequence by a sarcosine spacer (usually Sar6 (SEQ ID NO: 69)). Thus, N-terminal tracers can have a molecular format described as Fluo-Ala-Sar10-A (SEQ ID NO: 72) (BicycleCoreSequence), and (BicycleCoreSequence)-A-Sar6-K (Fluo) (SEQ ID NO: 67) for a C-terminally fluoresceinated construct.
Fluorescent tracers used in the Examples are A-(17-69)-A-Sar6-K (Fluo) (SEQ ID NO: 67), A-(17-69-07)-A-Sar6-K (Fluo) (SEQ ID NO: 67), and A-(17-69-12)-A-Sar6-K (Fluo) (SEQ ID NO: 67). Due to the acidic nature of the 17-69 fluorescent peptides, they were typically prepared as concentrated DMSO stocks, from which dilution were prepared in 100 mM Tris pH 8 buffer.
Due to their high affinities to the MT1-MMP Hemopexin domain (PEX), the fluoresceinated derivatives of 17-69-07 and 17-69-12 (denoted as 17-69-07-N040 and 17-69-12-N005, respectively) can be used for competition experiments (using FP for detection). […] Dissociation of the complex can be measured quantitatively, and the Kd of the competitor (titrant) to the target protein determined. The advantage of the competition method is that the affinities of non-fluoresceinated bicyclic peptides can be determined accurately and rapidly.
Subsequently, the non-fluorescent competitor bicyclic peptide (usually just the bicycle core sequence) is titrated, such that it displaces the fluorescent tracer from the target protein. The displacement of the tracer is measured and associated with a drop in fluorescence polarization. The drop in fluorescence polarization is proportional to the fraction of target protein bound with the non-fluorescent titrant, and thus is a measure of the affinity of titrant to target protein. […]
On the technique in general: Polarisation of emitted light reports the rotation of a fluorescent probe.

`C[C@H](NC(=O)CN1CCN(CC(=O)O)CCN(CC(=O)O)CCN(CC(=O)O)CC1)C(=O)N[C@H]1CSCc2cc3cc(c2)CSC[C@H](NC(=O)[C@@H](C)NC(=O)[C@H](Cc2cccc4ccccc24)NC(=O)[C@H](CCC(=O)O)NC(=O)[C@H](CC(N)=O)NC(=O)[C@@H](C)NC1=O)C(=O)N[C@@H](CCC(=O)O)C(=O)N[C@@H](CC(=O)O)C(=O)N[C@@H](Cc1ccccc1)C(=O)N[C@@H](Cc1ccc(O)cc1)C(=O)N[C@@H](CC(=O)O)C(=O)N[C@@H](C(C)(C)C)C(=O)N[C@H](C(N)=O)CSC3` [I-23] ({DOTA}-AC[dA]NE[1Nal][dA]CEDFYD[Tle]C-NH2; linker 2-8-15 via TBMB): binding was put at a Kd of 0.52 ± 0.24 nM.
